Data as given in PubChem BioAssay (NCI).
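1) Cells in 96-well plates. 2) Compound, 48 h, 5 concentrations. 3) Linear interpolation between surrounding doses. 4) Unreached endpoint = highest concentration. Here, GI50 denotes the concentration required for 50% inhibition of growth. Definition used: TGI = concentration required for complete inhibition of growth.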

Assays:
Experiment in all cases: NCI-60 cell line screen, 48 h
MDA-MB-468 breast = test system: MDA-MB-468 breast
786-0 renal = test system: 786-0 renal
A498 renal = test system: A498 renal
A549 NSCLC = test system: A549 NSCLC
ACHN renal = test system: ACHN renal
BT-549 breast = test system: BT-549 breast
CAKI-1 renal = test system: CAKI-1 renal
CCRF-CEM leukemia = test system: CCRF-CEM leukemia
COLO 205 colon = test system: COLO 205 colon
DU-145 prostate = test system: DU-145 prostate
EKVX NSCLC = test system: EKVX NSCLC
HCC-2998 colon = test system: HCC-2998 colon
HCT-116 colon = test system: HCT-116 colon
HCT-15 colon = test system: HCT-15 colon
HL-60(TB) leukemia = test system: HL-60(TB) leukemia
HOP-62 NSCLC = test system: HOP-62 NSCLC
HS 578T breast = test system: HS 578T breast
HT29 colon = test system: HT29 colon
IGROV1 ovarian = test system: IGROV1 ovarian
K-562 leukemia = test system: K-562 leukemia
KM12 colon = test system: KM12 colon
LOX IMVI melanoma = test system: LOX IMVI melanoma
M14 melanoma = test system: M14 melanoma
MALME-3M melanoma = test system: MALME-3M melanoma
MCF7 breast = test system: MCF7 breast
MDA-MB-231 breast = test system: MDA-MB-231 breast
MDA-MB-435 = test system: MDA-MB-435
MOLT-4 leukemia = test system: MOLT-4 leukemia
NCI-H226 lung = test system: NCI-H226 lung
NCI-H23 lung = test system: NCI-H23 lung
NCI-H460 lung = test system: NCI-H460 lung
NCI-H522 lung = test system: NCI-H522 lung
NCI/ADR-RES ovarian = test system: NCI/ADR-RES ovarian
OVCAR-3 ovarian = test system: OVCAR-3 ovarian
OVCAR-4 ovarian = test system: OVCAR-4 ovarian
OVCAR-5 ovarian = test system: OVCAR-5 ovarian
OVCAR-8 ovarian = test system: OVCAR-8 ovarian
PC-3 prostate = test system: PC-3 prostate
RPMI-8226 leukemia = test system: RPMI-8226 leukemia
RXF 393 renal = test system: RXF 393 renal
SF-268 CNS = test system: SF-268 CNS
SF-295 CNS = test system: SF-295 CNS
SF-539 CNS = test system: SF-539 CNS
SK-MEL-2 melanoma = test system: SK-MEL-2 melanoma
SK-MEL-28 melanoma = test system: SK-MEL-28 melanoma
SK-MEL-5 melanoma = test system: SK-MEL-5 melanoma
SK-OV-3 ovarian = test system: SK-OV-3 ovarian
SN12C renal = test system: SN12C renal
SNB-19 CNS = test system: SNB-19 CNS
SR leukemia = test system: SR leukemia
SW-620 colon = test system: SW-620 colon
T-47D breast = test system: T-47D breast
TK-10 renal = test system: TK-10 renal
U251 CNS = test system: U251 CNS
UACC-257 melanoma = test system: UACC-257 melanoma
UACC-62 melanoma = test system: UACC-62 melanoma
UO-31 renal = test system: UO-31 renal

## Cn1cc(-c2cc(N)n3nc(-c4cn(C)c5ccc(F)cc45)cc3n2)c2cc(F)ccc21
MDA-MB-468 breast
  GI50: 1.59 µM
  TGI: 3.45 µM

## CC1=CC(=O)C(C(C)=Nc2ccccc2Cl)C(=O)O1 (stereo not drawn)
MDA-MB-468 breast
  GI50: > 100 µM
  TGI: > 100 µM

## Fc1ccc(Nc2nc(NCCNc3ccnc4cc(Cl)ccc34)nc(N3CCOCC3)n2)cc1
MDA-MB-468 breast
  GI50: 1.96 µM
  TGI: 4.83 µM

## COc1cc(/C=C(/c2ccccc2)[N+](=O)[O-])c(OC)c2c1OCO2
MDA-MB-468 breast
  GI50: 1.33 µM
  TGI: 2.73 µM

## CS(=O)(=O)Nc1cc(-c2ccc3ncnc(Nc4ccc5c(cnn5Cc5ccc(F)cc5)c4)c3c2)cnc1Cl
MDA-MB-468 breast
  GI50: 0.281 µM
  TGI: 1.52 µM

## Clc1ccc2nc(Oc3ccccc3)cnc2c1
MDA-MB-468 breast
  GI50: > 100 µM
  TGI: > 100 µM

## O=C(NN1C(=O)CSC1c1ccc(Cl)cc1)c1[nH]c2ccc(F)cc2c1-c1ccccc1 (stereo not drawn)
MDA-MB-468 breast
  GI50: 8.04 µM
  TGI: 25.1 µM

## CCOC(=O)N1CCN(S(=O)(=O)c2oc(-c3ccc(Cl)cc3)nc2C#N)CC1
MDA-MB-468 breast
  GI50: 1.89 µM
  TGI: 4.09 µM

## COC(=O)[C@@H]1CCCN1C(=O)[C@@H]1CCCN1C(=O)[C@@H](Cc1c[nH]c2ccccc12)NC(=S)Nc1cc(C(F)(F)F)cc(C(F)(F)F)c1
MDA-MB-468 breast
  GI50: 2.05 µM
  TGI: 7.02 µM

## COc1ccc2c(c1)nc(N)c1c3cccnc3cn21
MDA-MB-468 breast
  GI50: 0.294 µM
  TGI: 3.45 µM

## COc1cnc2c(c1)C(=O)c1c-2n(CCCN2CCCC2)c(=O)c2cc(Cl)ccc12
MDA-MB-468 breast
  GI50: 0.0635 µM
  TGI: 2.04 µM

## CCN1C(=O)N(CC)C2C1NN=c1s/c(=C3\C(=O)N(C)c4ccccc43)c(=O)n12 (stereo not drawn)
MDA-MB-468 breast
  GI50: 0.354 µM
  TGI: 6.01 µM

## CN1CCN(c2ccc(C(=O)/C=C/c3ccc(Br)cc3)cc2)CC1
786-0 renal
  GI50: 29.5 µM
  TGI: > 100 µM
A498 renal
  GI50: > 100 µM
  TGI: > 100 µM
A549 NSCLC
  GI50: 28.1 µM
  TGI: > 100 µM
ACHN renal
  GI50: 54.9 µM
  TGI: > 100 µM
BT-549 breast
  GI50: 12 µM
  TGI: 46.7 µM
CAKI-1 renal
  GI50: 32.2 µM
  TGI: > 100 µM
CCRF-CEM leukemia
  GI50: 40.9 µM
  TGI: 95.5 µM
COLO 205 colon
  GI50: 50.1 µM
  TGI: > 100 µM
DU-145 prostate
  GI50: 86.6 µM
  TGI: > 100 µM
EKVX NSCLC
  GI50: > 100 µM
  TGI: > 100 µM
HCC-2998 colon
  GI50: 15.2 µM
  TGI: 50.4 µM
HCT-116 colon
  GI50: 3.54 µM
  TGI: 18.5 µM
HCT-15 colon
  GI50: 5.64 µM
  TGI: > 100 µM
HL-60(TB) leukemia
  GI50: 10.7 µM
  TGI: 33.6 µM
HOP-62 NSCLC
  GI50: > 100 µM
  TGI: > 100 µM
HS 578T breast
  GI50: > 100 µM
  TGI: > 100 µM
HT29 colon
  GI50: 15.8 µM
  TGI: > 100 µM
IGROV1 ovarian
  GI50: 34.5 µM
  TGI: > 100 µM
K-562 leukemia
  GI50: 6.96 µM
  TGI: 78.5 µM
KM12 colon
  GI50: 16.6 µM
  TGI: > 100 µM
LOX IMVI melanoma
  GI50: 13.7 µM
  TGI: 50.6 µM
M14 melanoma
  GI50: 36.6 µM
  TGI: > 100 µM
MALME-3M melanoma
  GI50: > 100 µM
  TGI: > 100 µM
MCF7 breast
  GI50: 5.67 µM
  TGI: > 100 µM
MDA-MB-231 breast
  GI50: > 100 µM
  TGI: > 100 µM
MDA-MB-435
  GI50: 22.4 µM
  TGI: 98 µM
MDA-MB-468 breast
  GI50: 7.85 µM
  TGI: 41 µM
MOLT-4 leukemia
  GI50: 31.3 µM
  TGI: > 100 µM
NCI-H226 lung
  GI50: 45.5 µM
  TGI: > 100 µM
NCI-H23 lung
  GI50: > 100 µM
  TGI: > 100 µM
NCI-H460 lung
  GI50: > 100 µM
  TGI: > 100 µM
NCI-H522 lung
  GI50: > 100 µM
  TGI: > 100 µM
NCI/ADR-RES ovarian
  GI50: 76 µM
  TGI: > 100 µM
OVCAR-3 ovarian
  GI50: 24.4 µM
  TGI: 96 µM
OVCAR-4 ovarian
  GI50: 70.8 µM
  TGI: > 100 µM
OVCAR-5 ovarian
  GI50: 51.9 µM
  TGI: > 100 µM
OVCAR-8 ovarian
  GI50: 54.9 µM
  TGI: > 100 µM
PC-3 prostate
  GI50: 28.2 µM
  TGI: > 100 µM
RPMI-8226 leukemia
  GI50: 5.38 µM
  TGI: 32.2 µM
RXF 393 renal
  GI50: 17.2 µM
  TGI: > 100 µM
SF-268 CNS
  GI50: > 100 µM
  TGI: > 100 µM
SF-295 CNS
  GI50: 41.3 µM
  TGI: > 100 µM
SF-539 CNS
  GI50: 24.4 µM
  TGI: > 100 µM
SK-MEL-2 melanoma
  GI50: > 100 µM
  TGI: > 100 µM
SK-MEL-28 melanoma
  GI50: 76.2 µM
  TGI: > 100 µM
SK-MEL-5 melanoma
  GI50: 22.5 µM
  TGI: > 100 µM
SK-OV-3 ovarian
  GI50: 53.9 µM
  TGI: > 100 µM
SN12C renal
  GI50: 22.7 µM
  TGI: > 100 µM
SNB-19 CNS
  GI50: > 100 µM
  TGI: > 100 µM
SR leukemia
  GI50: 8.37 µM
  TGI: 48.7 µM
SW-620 colon
  GI50: 23.2 µM
  TGI: > 100 µM
T-47D breast
  GI50: 28.7 µM
  TGI: > 100 µM
TK-10 renal
  GI50: > 100 µM
  TGI: > 100 µM
U251 CNS
  GI50: 20.8 µM
  TGI: > 100 µM
UACC-257 melanoma
  GI50: > 100 µM
  TGI: > 100 µM
UACC-62 melanoma
  GI50: 17.1 µM
  TGI: 38.2 µM
UO-31 renal
  GI50: 16.9 µM
  TGI: > 100 µM
